# Measured values as given in ChEMBL document CHEMBL1129075, “Synthesis and binding activity of some pyrazolo[1,5-c]quinazolines as tools to verify an optional binding site of a benzodiazepine receptor ligand” (J Med Chem, 1996).
# How the values were obtained:
# [1] = target: GABA-A receptor; anion channel; experiment: Displacement of [3H]flunitrazepam at GABA-A benzodiazepine receptor in rat brain cortical membranes; format: cell membranes, Membrane
# [2] = system: GABA-A receptor; anion channel; experiment: Displacement of [3H]flunitrazepam at GABA-A benzodiazepine receptor in rat brain cortical membranes (insoluble); format: cell membranes, Membrane
SMILES,Ki [1] [nM],Ki [2]
CCOC(=O)c1cc2c(cn1)[nH]c1ccccc12,4.5,
Oc1nc2ccccc2c2cc(-c3ccc(Cl)cc3)nn12,5300,
CC(C)OC(=O)c1cc2c3ccccc3nc(O)n2n1,434,
CCOC(=O)c1cc2c3ccccc3n(CC)c(=O)n2n1,> 10000,
c1ccc(-c2cc3n(n2)CNc2ccccc2-3)cc1,6570,
CCOC(=O)c1cc2c3ccccc3nc(S)n2n1,3290,
CCOC(=O)c1cc2c3ccccc3ncn2n1,> 10000,
CCOC(=O)c1cc2c3ccccc3n(C)c(=O)n2n1,> 10000,
c1ccc(-c2cc3c4ccccc4ncn3n2)cc1,> 10000,
Sc1nc2ccccc2c2cc(-c3ccccc3)nn12,> 10000,
Oc1nc2ccccc2c2cc(-c3nnco3)nn12,,Insoluble
O=C(O)c1cc2c3ccccc3nc(O)n2n1,> 10000,
Cn1c(=O)n2nc(-c3ccccc3)cc2c2ccccc21,> 10000,
O=C(Oc1ccccc1)c1cc2c3ccccc3nc(O)n2n1,3150,
Cc1nnc(-c2cc3c4ccccc4nc(O)n3n2)o1,4590,

# More lines, in order of falling Ki [1], values ahead:
Ki [1] [nM],Ki [2],SMILES
105,,Oc1nc2ccc(Cl)cc2c2cc(-c3ccccc3)nn12
70,,CCOC(=O)c1cc2n(n1)CNc1ccccc1-2
59,,Oc1nc2ccccc2c2cc(-c3ccccc3)nn12
53,,Oc1nc2ccccc2c2cc(-c3ccccn3)nn12
50,,CCOC(=O)c1cc2c3cc(Cl)ccc3nc(O)n2n1
41,,Oc1nc2ccc(Cl)cc2c2cc(-c3ccco3)nn12
28,,CCOC(=O)c1cc2c3ccccc3[nH]c(=O)n2n1
22,,COC(=O)c1cc2c3ccccc3[nH]c(=O)n2n1
16,,Oc1nc2ccccc2c2cc(-c3ccco3)nn12
7.4,,Oc1nc2ccccc2c2cc(-c3cccs3)nn12
